Values quoted from earlier work in patent publication US20190343121A1, “Cinmethylin Microcapsules with a Shell Made of Tetramethylxylylene Diisocyanate and a Polyamine with at Least Three Amine Groups” (BASF Agro B.V., priority 2016, published 2019).

Conditions: at 20° C.

In the case of “(±)-2-exo-(2-methylbenzyloxy)-1-methyl-4-isopropyl-7-oxabicyclo[2.2.1]heptane [Cinmethylin]”, the solubility in water is given as 63 µg/mL.
